This is an account of results in patent US10457811B2, “Surface-modified calcium oxide” (Kalkfabrik Netstal AG, priority 2012, dated 2019).

The assay has as its system Erwinia amylovora strain 385 (Ea385). In words: Fire blight test on inoculated apple blossoms (Gala). The class given is in vivo. The following applies: 0.06% spray solution, 1 hour after inoculation, reduction of infestation after 6 days. The method, then: Finely pulverized CaO was coated with stearic acid (5% by weight of stearic acid relative to CaO) and was tested, as dust on apple blossoms, against fire blight. The standardized tests were carried out at an institute certified therefor (bio-ferm Research GmbH, DE). Apple blossoms of the Gala type were placed, with the pedicel, in a 10% saccharose solution and were incubated in a humid chamber. Inoculation/pathogen: Erwinia amylovora strain 385 (Ea385), as a bacterial suspension of fresh cultures with 10 million cells per milliliter, was sprayed onto the blossoms. Infested blossoms were treated, 1 hour after inoculation, with the coated CaO as dust (test series) or were subjected to the standard treatment (streptomycin sulfate 0.06% as spray solution; control and benchmark). Evaluation: The blossoms were investigated after 6 days, and analyzed in terms of the pathogen-typical features of an infection (slime spots). 39% of the blossoms without treatment were infested with fire blight. The reduction of the infestation by means of the corresponding treatment was evaluated, in terms of the efficacy of the treatment.

Where a name gives a salt, the structure may show the parent alone.

As for `[H]/N=C(/N)N[C@H]1[C@H](O)[C@@H](O)[C@H](O[C@@H]2O[C@@H](C)[C@](O)(C=O)[C@H]2O[C@@H]2O[C@@H](CO)[C@H](O)[C@@H](O)[C@@H]2NC)[C@@H](N/C(N)=N\[H])[C@@H]1O` [Streptomycin sulfate, streptomycin sulfate], the “Efficacy of the treatment” value turned out to be 68%.
